The IC50 is the concentration that inhibits the measured activity by half.

The subject of data set [1] is normal human cells (Wi-38). Briefly: MTT cytotoxicity screening on normal human cells. It counts as cell-based. Conditions: for EC100 (safe concentration at 100% cell viability): Wi-38 normal human lung fibroblasts, MTT, 72 h, mean ± SEM.
For data set [2], the system named is human colon cancer (Caco-2) cells. Briefly: MTT anticancer screening on human colon cancer Caco-2 cells. Conditions: for IC50: Caco-2, MTT, 72 h, mean ± SEM; for Morphological changes of Caco-2 cells: 72 h treatment, phase contrast microscopy. It is filed as cell-based.
Another data set has as its system SOD. Conditions: read-out: SOD inhibition IC50; via copper chelation; cited from earlier work.
In a further data set the target is Cu/Zn SOD (Homo sapiens, UniProt P00441). Briefly: Inhibition of intracellular SOD activity in treated Caco-2 cells. It counts as cell-based. Conditions: Caco-2 cells treated with anticancer IC50 dose, 72 h.
The next data set relates to ALDH1A. Briefly: Inhibition of ALDH1A activity in treated Caco-2 cells. It is filed as cell-based, human. The conditions noted are these: Caco-2 cells treated with anticancer IC50 dose, 72 h.
The subject of data set [3] is glutathione peroxidase (GPx). The experiment in a line: Inhibition of glutathione peroxidase activity in treated Caco-2 cells. It counts as cell-based, human. The conditions noted are these: Caco-2 cells treated with anticancer IC50 dose, 72 h.
Another data set has as its system Caco-2 cells. The experiment in a line: Determination of cellular ROS in Caco-2. It counts as cell-based, human. Conditions: Caco-2 cells treated with anticancer IC50 dose.

Molecules are shown by their SMILES. Several values for one entry are separate records, joined by “and”; a condition that tells them apart may be missing. Identical values can stand only once.

Chain of Cu/Zn SOD (P00441 whole entry): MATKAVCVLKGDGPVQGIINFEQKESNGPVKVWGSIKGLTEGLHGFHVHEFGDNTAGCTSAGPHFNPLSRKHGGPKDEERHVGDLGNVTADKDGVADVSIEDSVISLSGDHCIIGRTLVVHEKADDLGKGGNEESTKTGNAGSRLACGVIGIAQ

Turning to `C=CCN1C(=O)SC(=Cc2cccc(Cl)c2)C1=O` [Compound 4b, 3-Allyl-5-(3-chlorobenzylidene)thiazolidine-2,4-dione], in data set [1], the “EC100 (safe concentration at 100% cell viability)” value stood at 9.902 ± 2.360 µM. This compound also had an IC50 in data set [2] (Homo sapiens, Caco-2, 72 h) of 13.8 ± 0.789 µM.

For the compound `C[N+](C)(C)CCO.C[N+](C)(C)CCO.[SH-].[SH-].[S]=[Mo]=[S]` [ATN-224, bis-choline tetrathiomolybdate], the IC50 in the data set on SOD was 0.33 µM.

For `CCOC(=O)CN1C(=O)SC(=Cc2ccc([N+](=O)[O-])cc2)C1=O` [Compound 5c, Ethyl-2-(5-(4-nitrobenzylidene)-2,4-dioxothiazolidin-3-yl)acetate], the “EC100 (safe concentration at 100% cell viability)” value in data set [1] was found to be 8.573 ± 0.409 µM. The compound also gave an IC50 in data set [2] (Homo sapiens, Caco-2, 72 h) of 6.67 ± 0.118 µM.

On to `O=C1SC(=Cc2ccccc2)C(=O)N1CCCO` [Compound 7a, 5-Benzylidene-3-(3-hydroxypropyl)thiazolidine-2,4-dione], for which the “EC100 (safe concentration at 100% cell viability)” value in data set [1] was 18.923 ± 1.959 µM. This compound yielded an IC50 in data set [2] (Homo sapiens, Caco-2, 72 h) of 10.2 ± 0.77 µM.

Consider `CN(C)c1ccc(C=C2SC(O)=NC2=O)cc1` [Compound 3d, 5-(4-(Dimethylamino)benzylidene)thiazolidine-2,4-dione], for which, in data set [1], the “EC100 (safe concentration at 100% cell viability)” value is 25.35 µM and 25.345 ± 0.655 µM. Half-maximal inhibition in data set [2] (Homo sapiens, Caco-2, 72 h) (IC50) was put at 8.95 ± 0.631 µM.

In the case of `O=C1SC(=Cc2ccc(OCCCBr)cc2)C(=O)N1CCCBr` [Compound 6e, 5-(4-(3-Bromopropoxy)benzylidene)-3-(3-bromopropyl)thiazolidine-2,4-dione], the “EC100 (safe concentration at 100% cell viability)” value in data set [1] is 10.683 ± 2.384 µM. Moreover, in data set [2], the “Morphological changes of Caco-2 cells” value was “severe shrinkage and collapse”; the IC50 was found to be 4.41 ± 0.546 µM. Moreover, the IC50 in data set [2] (Homo sapiens, Caco-2, 72 h) worked out at 4.41 µM.

Turning to `O=C1CSC(=O)N1` [Compound 1, 2,4-thiazolidinedione], the “EC100 (safe concentration at 100% cell viability)” value in data set [1] is 22.05 µM and 22.047 ± 0.434 µM. It took 12.1 ± 3.25 µM to reach half-maximal inhibition in data set [2] (Homo sapiens, Caco-2, 72 h) (IC50).

As for `C=CCN1C(=O)SC(=Cc2ccc([N+](=O)[O-])cc2)C1=O` [Compound 4c, 3-Allyl-5-(4-nitrobenzylidene)thiazolidine-2,4-dione], in data set [1], the “EC100 (safe concentration at 100% cell viability)” value was 7.078 ± 0.136 µM. Further, the IC50 in data set [2] (Homo sapiens, Caco-2, 72 h) stood at 6.52 ± 0.077 µM.

Regarding `CCOC(=O)CN1C(=O)SC(=Cc2ccc(N(C)C)cc2)C1=O` [Compound 5d, Ethyl-2-(5-(4-(dimethylamino)benzylidene)-2,4-dioxothiazolidin-3-yl)acetate], in data set [1], the “EC100 (safe concentration at 100% cell viability)” value came to 16.179 ± 6.066 µM. Besides, the IC50 in data set [2] (Homo sapiens, Caco-2, 72 h) is 8.24 ± 2.59 µM.

For the compound `O=C1NC(=O)C(=Cc2ccc([N+](=O)[O-])cc2)S1` [Compound 3c, 5-(4-Nitrobenzylidene)thiazolidine-2,4-dione], in data set [1], the “EC100 (safe concentration at 100% cell viability)” value stood at 6.0653 ± 0.127 µM. In data set [2], the “Morphological changes of Caco-2 cells” value is “severe shrinkage and collapse”; it took 4.72 ± 0.602 µM to reach half-maximal inhibition (IC50). In data set [2] (Homo sapiens, Caco-2, 72 h), this compound came in with an IC50 of 4.71 µM.

For `O=C1NC(=O)C(=Cc2ccc(O)cc2)S1` [Compound 3e, 5-(4-Hydroxybenzylidene)thiazolidine-2,4-dione], the “EC100 (safe concentration at 100% cell viability)” value in data set [1] was 6.727 ± 0.040 µM. This compound also displayed an IC50 in data set [2] (Homo sapiens, Caco-2, 72 h) of 8.48 ± 0.599 µM.

`C=CCN1C(=O)SC(=Cc2ccccc2)C1=O` [Compound 4a, 3-Allyl-5-benzylidenethiazolidine-2,4-dione]: the “EC100 fold relative to doxorubicin (safety)” value in data set [1] (Wi-38, EC100 compound vs DOX) is reported as “approximately 47.5 folds”. Further, in data set [1], the “EC100 (safe concentration at 100% cell viability)” value was 58.92 µM and 58.916 ± 10.698 µM. Half-maximal inhibition in data set [2] (Homo sapiens, Caco-2, 72 h) (IC50) was put at 12 ± 1.36 µM.

For the compound `C=CCN1C(=O)SC(=Cc2ccc(N(C)C)cc2)C1=O` [Compound 4d, 3-Allyl-5-(4-(dimethylamino)benzylidene)thiazolidine-2,4-dione], it took 7.062 ± 0.005 µM to reach half-maximal inhibition in data set [2] (Homo sapiens, Caco-2, 72 h) (IC50).

In the case of `O=C1SC(=Cc2ccc([N+](=O)[O-])cc2)C(=O)N1CCCO` [Compound 7c, 3-(3-Hydroxypropyl)-5-(4-nitrobenzylidene)thiazolidine-2,4-dione], in data set [1], the “EC100 (safe concentration at 100% cell viability)” value is 11.439 ± 0.927 µM. In data set [2] (Homo sapiens, Caco-2, 72 h), this compound displayed an IC50 of 6.77 ± 0.096 µM.

In the case of `O=C1SC(=Cc2ccc([N+](=O)[O-])cc2)C(=O)N1CCCBr` [Compound 6c, 3-(3-Bromopropyl)-5-(4-nitrobenzylidene)thiazolidine-2,4-dione], in data set [1], the “EC100 (safe concentration at 100% cell viability)” value is 13.424 ± 1.130 µM. Moreover, the IC50 in data set [2] (Homo sapiens, Caco-2, 72 h) came to 10.4 ± 0.499 µM.

With `COc1cccc2c1C(=O)c1c(O)c3c(c(O)c1C2=O)C[C@@](O)(C(=O)CO)C[C@@H]3O[C@H]1C[C@H](N)[C@H](O)[C@H](C)O1` [DOX, doxorubicin], the “EC100 (safe concentration at 100% cell viability)” value in data set [1] came out at 1.239 ± 0.285 µM. In addition, the IC50 in data set [2] worked out at 19.9 ± 2.37 µM; in data set [2] (Homo sapiens, Caco-2, 72 h), 19.9 µM. Moreover, the “Inhibition of intracellular SOD activity” value on Cu/Zn SOD is given as 30.78%. Further, the “Inhibition of ALDH1A activity” value in the data set on ALDH1A is recorded as “about 4.800%”. In addition, in data set [3], the “Inhibition of GPx activity” value is 40.31%. For the same compound, the “Fold increment in cellular ROS level relative to untreated cells” value in the data set on Caco-2 cells was 4.065 folds.

Take `O=C1N=C(O)SC1=Cc1ccccc1` [Compound 3a, 5-Benzylidenethiazolidine-2,4-dione]: the “EC100 (safe concentration at 100% cell viability)” value in data set [1] came to 19.679 ± 3.105 µM. Moreover, the IC50 in data set [2] (Homo sapiens, Caco-2, 72 h) came to 74.6 ± 8.31 µM.

In turn, `CCOC(=O)CN1C(=O)SC(=Cc2ccccc2)C1=O` [Compound 5a, Ethyl-2-(5-benzylidene-2,4-dioxothiazolidin-3-yl)acetate] displayed an IC50 in data set [2] (Homo sapiens, Caco-2, 72 h) of 8.2 ± 0.135 µM.

In data set [2] (Homo sapiens, Caco-2, 72 h), `C=CCOc1ccc(C=C2SC(=O)N(CC=C)C2=O)cc1` [Compound 4e, 3-Allyl-5-(4-(allyloxy)benzylidene)thiazolidine-2,4-dione] gave an IC50 of 12.2 ± 3.12 µM.

As to `CN(C)c1ccc(C=C2SC(=O)N(CCCBr)C2=O)cc1` [Compound 6d, 3-(3-Bromopropyl)-5-(4-(dimethylamino)benzylidene)thiazolidine-2,4-dione], in data set [1], the “EC100 (safe concentration at 100% cell viability)” value is 14.776 ± 1.125 µM. The IC50 in data set [2] (Homo sapiens, Caco-2, 72 h) amounted to 7.94 ± 0.599 µM.

Turning to `CCOC(=O)COc1ccc(C=C2SC(=O)N(CC(=O)OCC)C2=O)cc1` [Compound 5e, Ethyl-2-(5-(4-(2-ethoxy-2-oxoethoxy)benzylidene)-2,4-dioxothiazolidin-3-yl)acetate], in data set [1], the “EC100 (safe concentration at 100% cell viability)” value amounted to 8.417 ± 0.004 µM. In addition, in data set [2] (Homo sapiens, Caco-2, 72 h), the concentration for half-maximal inhibition (IC50) amounted to 8.57 ± 0.942 µM.

`CN(C)c1ccc(C=C2SC(=O)N(CCCO)C2=O)cc1` [Compound 7d, 5-(4-(Dimethylamino)benzylidene)-3-(3-hydroxypropyl)thiazolidine-2,4-dione]: in data set [1], the “EC100 (safe concentration at 100% cell viability)” value was 12.073 ± 3.577 µM. Besides, the IC50 in data set [2] (Homo sapiens, Caco-2, 72 h) worked out at 7.118 ± 0.01 µM.

Turning to `O=C1SC(=Cc2ccccc2)C(=O)N1CCCBr` [Compound 6a, 5-Benzylidene-3-(3-bromopropyl)thiazolidine-2,4-dione], the “EC100 (safe concentration at 100% cell viability)” value in data set [1] amounted to 18.938 ± 0.975 µM. Also, in data set [2], the “Morphological changes of Caco-2 cells” value is “severe shrinkage and collapse”; the IC50 stood at 4.739 ± 0.021 µM. The compound also returned an IC50 in data set [2] (Homo sapiens, Caco-2, 72 h) of 4.73 µM.

Values taken from paper PMC9219103 (ACS Omega, 2022).
